This is an account of results in US12214021B2 (CHINA AGRICULTURAL UNIVERSITY, priority 2018, dated 2025).

The subject of assay [1] is osteoblasts. The experiment in a line: proliferation of osteoblasts promoted by LF (MTT method). The assay is classed as cell-based. The settings on record: 1 nM together with LF, FIG. 4. The protocol: Based on transcriptome data, the inventors verified that LF can promote the high expression of VDR at both the gene and protein levels. In order to confirm the role of this pathway in the promotion of osteoblast proliferation and differentiation by LF, the inventors first designed a VDR siRNA to achieve the purpose of transiently silencing VDR genes. The principle of siRNA is the post-transcriptional gene silencing mechanism that blocks the expression of corresponding gene. 20 μM VDR siRNA was added to osteoblasts, the proliferation rate of osteoblasts promoted by LF was detected by MTT method, and the ALP activity of osteoblasts promoted by LF was detected by enzyme-linked immunoassay.
The inventors first confirmed that LF promotes the proliferation and differentiation of osteoblasts through the regulation of the VDR pathway using the osteoblast model. Since the osteogenic effect of VDR is mainly achieved by vitamin D, in order to simulate the normal physiological environment, the inventors treated osteoblasts with both 1 nM of […] (the active form of vitamin D) and LF, and then studied the proliferation and differentiation of osteoblasts.

In assay [2] the test system is VDR. Description: effect of p38 and TGF-β/Smads pathway inhibitors on VDR expression promoted by LF. The assay is classed as cell-based. The settings on record: for effect of inhibitor on the expression of VDR promoted by LF in the cytoplasm: FIG. 17A; for effect of inhibitor on the expression of VDR promoted by LF in nucleus: FIG. 17B. The protocol:
In order to verify the mechanism of LF for promoting the high expression of VDR, firstly, inhibitors were used in the cytoplasm to inhibit the extracellular signaling pathway to detect the promotion effect of LF on VDR. The p38 inhibitor SB203580 and the TGF-β/smads pathway inhibitor SB431542 were added to detect the expression of VDR promoted by LF.
Since VDR mainly functions in the nucleus, after inhibiting the pathway using SB203580 and SB431542 inhibitors, the expression of VDR promoted by LF in nucleus was detected.

The structures appear in SMILES notation.

`C=C1/C(=C\C=C2/CCC[C@]3(C)[C@@H]([C@H](C)CCCC(C)(C)O)CC[C@@H]23)C[C@@H](O)C[C@@H]1O` [1.25(OH)2D3, reference compound]: the “effect of the presence of 1.25(OH)2D3 on the osteogenic activity of LF” value in assay [1] was “does not affect”.

As for `C[S+]([O-])c1ccc(-c2nc(-c3ccncc3)c(-c3ccc(F)cc3)[nH]2)cc1` (centres unmarked) [SB203580], in assay [2], the “effect of inhibitor on the expression of VDR promoted by LF in the cytoplasm” value is listed as “no significant effect” and the “effect of inhibitor on the expression of VDR promoted by LF in nucleus” value was “no significant effect”.

`NC(=O)c1ccc(-c2nc(-c3ccc4c(c3)OCO4)c(-c3ccccn3)[nH]2)cc1` [SB431542]: in assay [2], the “effect of inhibitor on the expression of VDR promoted by LF in the cytoplasm” value was “no significant effect” and the “effect of inhibitor on the expression of VDR promoted by LF in nucleus” value is “no significant effect”.
